target: APJ receptor (Homo sapiens (Human), UniProt P35414); experiment: [35S]GTPγS binding assay on membranes from CHO cells stably expressing human APJ receptor; assay type: biochemical; conditions: membranes of CHO cells stably expressing human APJ receptor, means of several independent experiments, read-out: Activity hAPJ SPA EC50 IP
Procedure: The human APJ receptor was cloned by polymerase chain reaction and the gene encoding the receptor was subcloned in pFLAG-CMV™-3 expression vector (Sigma, Saint Louis, Mo. USA) in-house at Amgen. A GTPγS binding assay was performed on membranes prepared from CHO cells stably expressing human APJ receptor. The optimum experimental conditions for the concentrations of GDP, MgCl2, and NaCl in the assay buffer were initially determined. The assay was performed in assay buffer [20 mM HEPES, pH 7.5, 5 mM MgCl2, and 0.1% (w/v) BSA with 200 mM NaCl, 3 μM GDP] and membranes expressing human APJ receptor/well along with WGA PS beads. The reaction was initiated by addition of 0.2 nM [^35S]GTPγS (Perkin Elmer Life and Analytical Sciences, Waltham USA) in the absence or presence of various ligands and incubated at RT for 90 min. Nonspecific binding was determined in the presence of 100 μM GTPγS and was always less than 0.2% of total binding. All the results presented are means of several independent experiments and analyzed by non-linear regression methods using commercially available program Prism (GraphPad, San Diego, Calif.) to obtain EC50 detailed in Table 26.

Sequence of APJ receptor (P35414 whole entry): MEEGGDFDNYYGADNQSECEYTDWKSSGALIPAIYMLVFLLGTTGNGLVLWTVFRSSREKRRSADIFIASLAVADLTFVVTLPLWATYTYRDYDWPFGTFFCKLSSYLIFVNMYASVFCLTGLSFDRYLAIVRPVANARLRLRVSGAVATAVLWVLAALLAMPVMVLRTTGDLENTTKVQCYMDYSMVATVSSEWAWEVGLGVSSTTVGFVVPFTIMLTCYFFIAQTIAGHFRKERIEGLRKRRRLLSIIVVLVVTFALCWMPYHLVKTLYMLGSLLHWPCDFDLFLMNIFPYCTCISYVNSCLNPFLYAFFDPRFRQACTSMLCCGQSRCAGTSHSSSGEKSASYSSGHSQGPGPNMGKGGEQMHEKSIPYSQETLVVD

Q: With `COc1cccc(OC)c1-n1c(NS(=O)(=O)[C@H]2C[C@@H](O)CN(c3ncc(F)cn3)C2)nnc1-c1ccco1` (single isomer, unassigned) [Example 167.0, (3S,5R)—N-(4-(2,6-Dimethoxyphenyl)-5-(2-furanyl)-4H-1,2,4-triazol-3-yl)-1-(5-fluoro-2-pyrimidinyl)-5-hydroxy-3-piperidinesulfonamide or (3R,5S)—N-(4-(2,6-dimethoxyphenyl)-5-(2-furanyl)-4H-1,2,4-triazol-3-yl)-1-(5-fluoro-2-pyrimidinyl)-5-hydroxy-3-piperidinesulfonamide] as the compound, how does the EC50 read?
A: The EC50 was 0.94 nM.

Q: How did the EC50 turn out when `COc1cccc(OC)c1-n1c(NS(=O)(=O)[C@H](C)Cc2ccc(C#N)cn2)nnc1-c1ccc(C)o1` (single isomer, unassigned) [Example 12.0, (2R)-1-(5-cyano-2-pyridinyl)-N-(4-(2,6-dimethoxyphenyl)-5-(5-methyl-2-furanyl)-4H-1,2,4-triazol-3-yl)-2-propanesulfonamide or (2S)-1-(5-cyano-2-pyridinyl)-N-(4-(2,6-dimethoxyphenyl)-5-(5-methyl-2-furanyl)-4H-1,2,4-triazol-3-yl)-2-propanesulfonamide] was run?
A: The EC50 was 0.15 nM.

Q: With `COc1ccccc1-n1c(NS(=O)(=O)[C@@H](C)Cc2ncc(F)cn2)nnc1-c1ccc(C)o1` (racemic) [Example 295.0, (2S)-1-(5-fluoro-2-pyrimidinyl)-N-(4-(2-methoxyphenyl)-5-(5-methyl-2-furanyl)-4H-1,2,4-triazol-3-yl)-2-propanesulfonamide and (2R)-1-(5-fluoro-2-pyrimidinyl)-N-(4-(2-methoxyphenyl)-5-(5-methyl-2-furanyl)-4H-1,2,4-triazol-3-yl)-2-propanesulfonamide] as the compound, how does the EC50 read?
A: The EC50 was 6.1 nM.

Q: Which EC50 does the source give for `CCOC(=O)[C@@H]1C[C@H](S(=O)(=O)Nc2nnc(-c3ccco3)n2-c2c(OC)cccc2OC)CN(c2ncc(F)cn2)C1` (single isomer, unassigned) [Example 156.0, Ethyl (3R,5S)-5-((4-(2,6-Dimethoxyphenyl)-5-(2-furanyl)-4H-1,2,4-triazol-3-yl)sulfamoyl)-1-(5-fluoro-2-pyrimidinyl)-3-piperidinecarboxylate or Ethyl (3S,5R)-5-((4-(2,6-dimethoxyphenyl-5-(2-furanyl)-4H-1,2,4-triazol-3-yl)sulfamoyl)-1-(5-fluoro-2-pyrimidinyl)-3-piperidinecarboxylate] here?
A: Its EC50 is 0.36 nM.

Q: `COc1cccc(OC)c1-n1c(NS(=O)(=O)CCc2ccc(C#N)cn2)nnc1-c1ccc(C)o1` [Example 19.0, 2-(5-cyano-2-pyridinyl)-N-(4-(2,6-dimethoxyphenyl)-5-(5-methyl-2-furanyl)-4H-1,2,4-triazol-3-yl)ethanesulfonamide] was tested. Which EC50 did it give?
A: Its EC50 is 0.29 nM.

Q: With `COc1cccc(OC)c1-n1c(NS(=O)(=O)[C@H]2COC[C@@H]2c2ncc(F)cn2)nnc1-c1ccco1` (racemic) [Example 180.0, (3R,4S)—N-(4-(2,6-Dimethoxyphenyl)-5-(2-furanyl)-4H-1,2,4-triazol-3-yl)-4-(5-fluoro-2-pyrimidinyl)tetrahydro-3-furansulfonamide and (3S,4R)—N-(4-(2,6-dimethoxyphenyl)-5-(2-furanyl)-4H-1,2,4-triazol-3-yl)-4-(5-fluoro-2-pyrimidinyl)tetrahydro-3-furansulfonamide] as the compound, how does the EC50 read?
A: The EC50 was 3.6 nM.

Q: `COc1cccc(OC)c1-n1c(NS(=O)(=O)[C@H](C)[C@@H](O)c2cn3ccccc3n2)nnc1-c1ccc(C)o1` (racemic) [Example 269.0, (1R,2S)—N-(4-(2,6-Dimethoxyphenyl)-5-(5-methyl-2-furanyl)-4H-1,2,4-triazol-3-yl)-1-hydroxy-1-imidazo[1,2-a]pyridin-2-yl-2-propanesulfonamide and (1S,2R)—N-(4-(2,6-dimethoxyphenyl)-5-(5-methyl-2-furanyl)-4H-1,2,4-triazol-3-yl)-1-hydroxy-1-imidazo[1,2-a]pyridin-2-yl-2-propanesulfonamide] was tested. Which EC50 did it give?
A: Its EC50 is 0.49 nM.

Q: Which EC50 does the source give for `COc1cccc(OC)c1-n1c(NS(=O)(=O)[C@@H](C)[C@@H](O)c2cc3ccccn3n2)nnc1-c1ccc(C)o1` (single isomer, unassigned) [Example 304.0, (1S,2S)—N-(4-(2,6-Dimethoxyphenyl)-5-(5-methyl-2-furanyl)-4H-1,2,4-triazol-3-yl)-1-hydroxy-1-pyrazolo[1,5-a]pyridin-2-yl-2-propanesulfonamide or (1R,2R)—N-(4-(2,6-dimethoxyphenyl)-5-(5-methyl-2-furanyl)-4H-1,2,4-triazol-3-yl)-1-hydroxy-1-pyrazolo[1,5-a]pyridin-2-yl-2-propanesulfonamide] here?
A: The EC50 was 16 nM.

Q: How did the EC50 turn out when `COc1cccc(OC)c1-n1c(NS(=O)(=O)[C@H](C)Cc2ccncn2)nnc1-c1ccco1` (single isomer, unassigned) [Example 46.0, (2R)—N-(4-(2,6-dimethoxyphenyl)-5-(2-furanyl)-4H-1,2,4-triazol-3-yl)-1-(4-pyrimidinyl)-2-propanesulfonamide or (2S)—N-(4-(2,6-dimethoxyphenyl)-5-(2-furanyl)-4H-1,2,4-triazol-3-yl)-1-(4-pyrimidinyl)-2-propanesulfonamide] was run?
A: The EC50 was 300 nM.

Q: `COc1cccc(OC)c1-n1c(NS(=O)(=O)[C@@H]2C[C@H]2c2ccc(Cl)cc2)nnc1-c1ccco1` (single isomer, unassigned) [Example 192.0, (1R,2S)-2-(4-Chlorophenyl)-N-(4-(2,6-dimethoxyphenyl)-5-(2-furanyl)-4H-1,2,4-triazol-3-yl)cyclopropanesulfonamide or (1S,2R)-2-(4-chlorophenyl)-N-(4-(2,6-dimethoxyphenyl)-5-(2-furanyl)-4H-1,2,4-triazol-3-yl)cyclopropanesulfonamide] was tested. Which EC50 did it give?
A: Its EC50 is 2.8 nM.

Q: `COc1cccc(OC)c1-n1c(NS(=O)(=O)[C@@H](C)Cc2ncc(C)cn2)nnc1-c1ccc(C)o1` (single isomer, unassigned) [Example 16.0, (2S)—N-(4-(2,6-dimethoxyphenyl)-5-(5-methyl-2-furanyl)-4H-1,2,4-triazol-3-yl)-1-(5-methyl-2-pyrimidinyl)-2-propanesulfonamide or (2R)—N-(4-(2,6-dimethoxyphenyl)-5-(5-methyl-2-furanyl)-4H-1,2,4-triazol-3-yl)-1-(5-methyl-2-pyrimidinyl)-2-propanesulfonamide] was tested. Which EC50 did it give?
A: Its EC50 is 0.22 nM.

Q: For `COc1cccc(OC)c1-n1c(NS(=O)(=O)[C@@H](C)[C@H](O)c2cc3ccccn3n2)nnc1-c1ccc(C)o1` (single isomer, unassigned) [Example 266.0, (1R,2S)—N-(4-(2,6-Dimethoxyphenyl)-5-(5-methyl-2-furanyl)-4H-1,2,4-triazol-3-yl)-1-hydroxy-1-pyrazolo[1,5-a]pyridin-2-yl-2-propanesulfonamide or (1S,2R)—N-(4-(2,6-dimethoxyphenyl)-5-(5-methyl-2-furanyl)-4H-1,2,4-triazol-3-yl)-1-hydroxy-1-pyrazolo[1,5-a]pyridin-2-yl-2-propanesulfonamide], which EC50 is on record?
A: The EC50 was 0.21 nM.

Q: For `COc1cccc(OC)c1-n1c(NS(=O)(=O)[C@H](C)Cc2ncc(Cl)cc2NC(C)=O)nnc1-c1ccco1` (single isomer, unassigned) [Example 9.0, N-(5-chloro-2-((2R)-2-((4-(2,6-dimethoxyphenyl)-5-(2-furanyl)-4H-1,2,4-triazol-3-yl)sulfamoyl)propyl)-3-pyridinyl)acetamide or N-(5-chloro-2-((2S)-2-((4-(2,6-dimethoxyphenyl)-5-(2-furanyl)-4H-1,2,4-triazol-3-yl)sulfamoyl)propyl)-3-pyridinyl)acetamide], which EC50 is on record?
A: The EC50 was 0.091 nM.

Q: How did the EC50 turn out when `COc1cccc(OC)c1-n1c(NS(=O)(=O)[C@H](C)Cc2ncc(Cl)cc2C#N)nnc1-c1ccco1` (single isomer, unassigned) [Example 20.0, (2R)-1-(5-chloro-3-cyano-2-pyridinyl)-N-(4-(2,6-dimethoxyphenyl)-5-(2-furanyl)-4H-1,2,4-triazol-3-yl)-2-propanesulfonamide or (2S)-1-(5-chloro-3-cyano-2-pyridinyl)-N-(4-(2,6-dimethoxyphenyl)-5-(2-furanyl)-4H-1,2,4-triazol-3-yl)-2-propanesulfonamide] was run?
A: The EC50 was 0.3 nM.

Q: `COCC(COC)n1c(NS(=O)(=O)[C@@H](C)[C@H](OC)c2ncc(Cl)cn2)nnc1-c1ccc(C)o1` [Example 387.0, (1R,2S)-1-(5-chloro-2-pyrimidinyl)-N-(4-(1,3-dimethoxy-2-propanyl)-5-(5-methyl-2-furanyl)-4H-1,2,4-triazol-3-yl)-1-methoxy-2-propanesulfonamide] was tested. Which EC50 did it give?
A: The EC50 was 2.1 nM.

Q: `COc1cccc(OC)c1-n1c(NS(=O)(=O)[C@H](C)Cc2ncc(F)cc2NC(C)=O)nnc1-c1ccco1` (racemic) [Example 28.0, N-(2-((2R)-2-((4-(2,6-dimethoxyphenyl)-5-(2-furanyl)-4H-1,2,4-triazol-3-yl)sulfamoyl)propyl)-5-fluoro-3-pyridinyl)acetamide and N-(2-((2S)-2-((4-(2,6-dimethoxyphenyl)-5-(2-furanyl)-4H-1,2,4-triazol-3-yl)sulfamoyl)propyl)-5-fluoro-3-pyridinyl)acetamide] was tested. Which EC50 did it give?
A: Its EC50 is 0.48 nM.

Q: For `COC[C@@H](Cc1ncc(F)cn1)S(=O)(=O)Nc1nnc(-c2ccc(C)o2)n1-c1c(OC)cccc1OC` (single isomer, unassigned) [Example 78.0, (2R)—N-(4-(2,6-Dimethoxyphenyl)-5-(5-methyl-2-furanyl)-4H-1,2,4-triazol-3-yl)-1-(5-fluoro-2-pyrimidinyl)-3-methoxy-2-propanesulfonamide or (2S)—N-(4-(2,6-dimethoxyphenyl)-5-(5-methyl-2-furanyl)-4H-1,2,4-triazol-3-yl)-1-(5-fluoro-2-pyrimidinyl)-3-methoxy-2-propanesulfonamide], which EC50 is on record?
A: Its EC50 is 0.77 nM.
